Key:
Format in all cases: in vivo
[1] = tested on: PDX mice each transplanted with the breast cancer tissue of one of six patients (A to F); assay: Lapatinib drug efficacy in PDX mice selected for low CD140a score, Example 4; details: three mice per group selected for low CD140a score; 100 mg/kg i.v. twice a day, 42 times; 21 days after first administration
Experimental: PDX mice each transplanted with the breast cancer tissue (volume: about 200 mm^3) of one of six patients (A to F), which were the same as those used in Example 1, were purchased, five mice for each of the patients. These PDX mice were reared, and the size of the tumor in each mouse was measured every 3 or 4 days. When the tumor volume reached 500 mm^3, tumor tissue was collected from each mouse using a scalpel.
The observation and image capture of the immunostained images and the stained images for morphological observation were carried out in the same manner as in Example 1, to measure the PID score or the DAB score of CD140a. […]
To each of the thus selected three PDX mice, in each group, 100 mg/kg of lapatinib (trade name: Tykerb) was administered intravenously twice a day, for a total of 42 times, in the same manner as in Example 1, and the tumor volume was measured before the first administration, and 21 days after the first administration. […] The collected tissue sections were used for the quantification of the expression level of HER2 protein as the target protein, in the same manner as in Example 1.

[2] = tested on: PDX mice each transplanted with the breast cancer tissue of one of six patients (A to F); assay: Lapatinib drug efficacy (tumor volume) in breast cancer PDX mice, Example 1; details: 100 mg/kg i.v. twice a day, 42 times; for Tumor size (size at the start of administration is taken as 100%): 21 days after first administration
Experimental: To each of these PDX mice, 100 mg/kg of lapatinib (Trade name: Tykerb) was administered intravenously twice a day, for a total of 42 times. The measurement of the tumor volume was carried out before the administration and 21 days after the first administration. At the same time, a tissue section was collected from each mouse using a frozen needle, at each time point. The collected tissue sections were subjected to a formalin fixation treatment and a paraffin-embedding treatment, and then sliced to prepare sample slides, according to conventional methods. The thus prepared sample slides were used for the quantification of the expression level of HER2 as the target protein.

[3] = tested on: hemato-lymphoid humanized model mice transplanted with tumor tissue of lung cancer patients; assay: Nivolumab drug efficacy in hemato-lymphoid humanized model mice transplanted with lung cancer tissue, Example 5; details: 100 mg/kg i.v. twice a day, 42 times; 21 days after first administration
Source text: Hemato-lymphoid humanized mice, produced by transplanting human hematopoietic stem cells into mice with acquired immune deficiency, were transplanted with tumor tissue, to prepare hemato-lymphoid humanized model mice, which are one type of patient-derived tumor-transplanted mice. Tumor tissues collected from six lung cancer patients were purchased from SofiaBio, and the thus produced hemato-lymphoid humanized mice were each subcutaneously transplanted with the tumor tissue, having a size of 2 mm square, of one of the patients (five mice transplanted with the tumor tissue of one patient were produced for each of the patients). To each of the model mice whose tumor tissue had grown to the size of about 300 mm^3 one month after the transplantation, 100 mg/kg of an anti-human PD-1 monoclonal antibody preparation, nivolumab (trade name: Opdivo) was administered intravenously twice a day, for a total of 42 times. In the same manner as in Example 1, the tumor volume was measured before the first administration and 21 days after the first administration. At the same time, a tissue section was collected from each of the mice, and sample slides were prepared in the same manner as in Example 1. […]

Compound: CS(=O)(=O)CCNCc1ccc(-c2ccc3ncnc(Nc4ccc(OCc5cccc(F)c5)c(Cl)c4)c3c2)o1 [Lapatinib, lapatinib]
- drug efficacy (effect of reducing the tumor size) in relation to PID score of HER2 protein [1]: increased drug efficacy (effect of reducing the tumor size) of lapatinib tend to be observed in a PDX mouse having a higher PID score of HER2 protein
- Tumor size (size at the start of administration is taken as 100%) ([2]; Sample A (PID score 10, DAB score — before administration)): 180%
- Tumor size (size at the start of administration is taken as 100%) ([2]; Sample B (PID score 30, DAB score 1+ before administration)): 120%
- Tumor size (size at the start of administration is taken as 100%) ([2]; Sample C (PID score 100, DAB score 2+ before administration)): 80%
- Tumor size (size at the start of administration is taken as 100%) ([2]; Sample D (PID score 200, DAB score 3+ before administration)): 70%
- Tumor size (size at the start of administration is taken as 100%) ([2]; Sample E (PID score 400, DAB score 3+ before administration)): 60%
- Tumor size (size at the start of administration is taken as 100%) ([2]; Sample F (PID score 800, DAB score 3+ before administration)): 10%
- drug efficacy (effect of reducing the tumor size) in relation to PID score ([2]; among the PDX mice having the same DAB score of 3+): increased drug efficacy (effect of reducing the tumor size) of lapatinib tend to be observed in a PDX mouse having a higher PID score

Compound: nivolumab
- drug efficacy (effect of reducing the tumor size) in relation to PID score of PD-L1 protein [3]: increased drug efficacy (effect of reducing the tumor size) of nivolumab tend to be observed in a PDX mouse having a higher PID score of PD-L1 protein
